# Reference: publication PMC5840262, “Design, Synthesis and Evaluation of Branched RRWQWR-Based Peptides as Antibacterial Agents Against Clinically Relevant Gram-Positive and Gram-Negative Pathogens” (Frontiers in Microbiology, 2018)
# Values joined by “and” are separate entries in the source; they are usually repeats but may differ in a detail not shown here. Identical values can stand only once. Like-named read-outs stand apart in the source and are kept apart here. Ends that are not written are not given here.
# Assays:
# [1] = tested on: Klebsiella pneumoniae clinical isolate 49,644; type: cell-based
# Description: (§1) For the clinical isolates, we used 20 different isolates from the Public Health Reference Laboratory collection of the Secretaría de Salud del Distrito (SdSD; Bogotá, Colombia). The samples were collected from June to December 2016. For each isolate, the patient parameters (age, gender and location) and the culture site were recorded for epidemiologic monitoring (Table 1). All isolates had been previously tested for antibiotic sensitivity at the Public Health Microbiology Laboratory using either the Phoenix™ system (Gram-positive) or the VITEK 2 system (Gram-negative).
# (§2) We screened all five peptides against the ATCC reference strains and the clinical isolates according to Method M7-A7 of the National Committee for Clinical Laboratory Standards (CLSI, [2007]). The MIC50 and MBC values were determined using a broth microdilution and growth inhibition method previously reported by Leon-Calvijo et al. ([2015]), with some modifications (Wiegand et al., [2008]). Briefly, the MIC50 experiments comprised a liquid-inhibition growth assay in a sterile, untreated, 96-well flat-bottom tissue culture plate. The bacteria were cultured overnight n Mueller Hinton agar; three colonies were transferred to 8 mL of Mueller Hilton broth and incubated at 37°C until the mid-exponential phase of growth. The turbidity of the cultures was measured and adjusted spectrophotometrically to a McFarland standard of 0.5, and then diluted to a final concentration of 5 × 10^7 colony forming units (CFU) per well. Stock solutions (2,000 μM) of each test peptide were serially diluted to final concentrations (per well) of 200, 100, 50, 25, 12.5, and 6.25 μM. Each concentration was evaluated in duplicate and each assay was performed in triplicate.
# (§3) Wells containing Mueller Hilton broth with bacterial inoculum only served as bacterial-growth controls. Additional controls included Mueller Hilton broth alone (as blank) and Mueller Hilton broth with ciprofloxacin (2 μg/mL; as positive control). The microplate was incubated for 24 h at 37°C, and growth inhibition was measured by monitoring the optical density at 620 nm (OD620). The MIC50 was defined as the peptide concentration at which bacterial growth was inhibited by 50%.
# (§4) To determine the MBC, an aliquot from each well of the MIC50 assay was spread onto Mueller Hilton agar. After 18 h at 37°C, the concentration that inhibited bacterial growth was determined. Each of these tests was performed four times. MBC was defined as the lowest concentration of peptide at which the number of bacteria was reduced by 99.9% in vitro (European Committee for Antimicrobial Susceptibility Testing, [2000]).
# [2] = tested on: Enterococcus faecium clinical isolate 1,462; type: cell-based
# Description: as §1, §2, §3, §4
# [3] = tested on: Staphylococcus aureus clinical isolate 48,577; type: cell-based
# Description: as §1, §2, §3, §4
# [4] = tested on: Enterococcus faecium clinical isolate 1,461; type: cell-based
# Description: as §1, §2, §3, §4
# [5] = tested on: human erythrocytes; assay: Hemolytic activity; type: cell-based
# Description: Human erythrocytes collected from the blood samples of healthy humans were harvested by centrifugation for 7 min at 162 × g and washed three times in phosphate-buffered saline (PBS). The erythrocytes (2% hematocrit in PBS) were incubated with peptide molecules at several concentrations (6.25, 12.5, 25, 50, and 100 μM) for 2 h at 37°C. PBS was used as negative control for hemolysis, and sterile distilled water was used as positive control (100% hemolysis). The plate was subsequently centrifuged at 1,459 × g for 10 min at 4°C. Aliquots of the supernatant from each well (75 μL) were carefully transferred to a new sterile 96-well plate, and hemolytic activity was evaluated by measuring the OD492 using an Asys Expert Plus Microplate reader. The experiments were performed in duplicate, and hemolytic activity was calculated for each peptide.
# [6] = tested on: Enterococcus faecalis ATCC 29212 (sensitive); type: cell-based
# Description: as §2, §3, §4
# [7] = tested on: Pseudomonas aeruginosa ATCC 10145 (sensitive); type: cell-based
# Description: as §2, §3, §4
# [8] = tested on: Enterococcus faecalis ATCC 51575 (resistant); type: cell-based
# Description: as §2, §3, §4
# [9] = tested on: Pseudomonas aeruginosa ATCC 27853 (resistant); type: cell-based
# Description: as §2, §3, §4
# [10] = tested on: clinical isolates of Gram-positive bacteria (Enteroccocus faecium, Staphylococcus aureus); assay: Therapeutic index, Gram-positive clinical isolates
# Text: (§5) We determined the therapeutic index of each peptide, which we defined as the ratio of Maximum Hemolytic Activity (Hmax) to MIC50 (Hmax/MIC50).
# (§6) The results are shown in Table 7 (Gram-positive) and Table 8 (Gram-negative). Regarding the Gram-positive bacteria, the palindromic, dimeric and tetrameric peptides were active chiefly against S. aureus. This trend was consistent with results of the experiments on the ATCC strains, in which these peptides were only active against the sensitive strain of the […] bacteria.
# [11] = tested on: clinical isolates of Gram-negative bacteria (Klebsiella pneumoniae, Pseudomonas aeruginosa); assay: Therapeutic index, Gram-negative clinical isolates
# Text: as §5, §6
# [12] = tested on: Gram-negative ATCC strains (K. pneumoniae 13883 and 700603, P. aeruginosa 10145 and 27853)
# Text: as §5
# The therapeutic index (TI) is a ratio of the toxic dose of a substance to its therapeutically-active dose and can be calculated different ways (e.g., LD50/ED50). Here, we calculated a TI value for each peptide against all the Gram-positive or the Gram-negative ATCC strains, by dividing its Hmax by its MIC50 for the given group of strains. […] Additionally, to make our quantitative analysis more robust [geometric mean (Khachatryan et al., [2017]) and fold values], we have included MIC50 values for these peptides against S. aureus and K. pneumoniae that we previously obtained using the same assay, the M7-A7 method of the National Committee for Clinical Laboratory Standards (Leon-Calvijo et al., [2015]).
substance,measurement,setting,value
"RRWQWR-NH2 [LfcinB (20–25), reference compound]",MIC50,"[1]; K. pneumoniae isolate 49,644, broth microdilution, 24 h 37°C, OD620, 50% growth inhibition",>100 µM
same,MBC,"[1]; K. pneumoniae isolate 49,644, plated on agar 18 h 37°C, 99.9% reduction",>100 µM
same,MIC50,"[2]; E. faecium isolate 1,462, broth microdilution, 24 h 37°C, OD620, 50% growth inhibition",>100 µM
same,MBC,"[2]; E. faecium isolate 1,462, plated on agar 18 h 37°C, 99.9% reduction",>100 µM
same,MIC50,"[3]; S. aureus isolate 48,577, broth microdilution, 24 h 37°C, OD620, 50% growth inhibition",3.7 µM
same,MBC,"[3]; S. aureus isolate 48,577, plated on agar 18 h 37°C, 99.9% reduction",>100 µM
same,MIC50,"[4]; E. faecium isolate 1,461, broth microdilution, 24 h 37°C, OD620, 50% growth inhibition",>100 µM
same,MBC,"[4]; E. faecium isolate 1,461, plated on agar 18 h 37°C, 99.9% reduction",>100 µM
same,"Hmax, maximum hemolytic activity","[5]; human red blood cells, 2% hematocrit in PBS, 2 h 37°C, OD492, peptide 6.25-100 μM, concentration of the maximum in the column beside, duplicate",7.1%
same,"H50, concentration of peptide leading to 50% hemolysis","[5]; human red blood cells, 2 h 37°C, highest concentration tested 100 μM",>100 µM
same,Peptide concentration corresponding to Hmax,"[5]; human red blood cells, 2 h 37°C, used as MHC in the therapeutic index",25 µM and 25.0 µM
same,MBC,"[6]; E. faecalis ATCC 29212 sensitive, aliquots of MIC50 wells on Mueller Hinton agar, 18 h 37°C, 99.9% reduction",>200.0 µM
same,MIC50,"[6]; E. faecalis ATCC 29212 sensitive, broth microdilution, Mueller Hinton broth, 24 h 37°C, OD620, concentration inhibiting growth by 50%",>200.0 µM
same,MIC50,"[7]; P. aeruginosa ATCC 10145 sensitive, broth microdilution, 24 h 37°C, OD620, 50% growth inhibition",>200.0 µM
same,MBC,"[7]; P. aeruginosa ATCC 10145 sensitive, plated on Mueller Hinton agar, 18 h 37°C, 99.9% reduction",>200.0 µM
same,MIC50,"[8]; E. faecalis ATCC 51575 resistant, broth microdilution, 24 h 37°C, OD620, 50% growth inhibition",198.0 µM
same,MBC,"[8]; E. faecalis ATCC 51575 resistant, plated on Mueller Hinton agar, 18 h 37°C, 99.9% reduction",>200.0 µM
same,MIC50,"[9]; P. aeruginosa ATCC 27853 resistant, broth microdilution, 24 h 37°C, OD620, 50% growth inhibition",>200.0 µM
same,MBC,"[9]; P. aeruginosa ATCC 27853 resistant, plated on Mueller Hinton agar, 18 h 37°C, 99.9% reduction",>200.0 µM
RWQWRWQWR [PLS],"Gm, geometric mean of MIC50 values",[10],13.7
same,MBC,"[1]; clinical isolate 49,644, 18 h",100.0 µM
same,MIC50,"[1]; clinical isolate 49,644, 24 h",12.5 µM
same,MBC,"[2]; clinical isolate 1,462, 18 h",100.0 µM
same,MIC50,"[2]; clinical isolate 1,462, 24 h",5.7 µM
same,MBC,"[3]; clinical isolate 48,577, 18 h",100.0 µM
same,MBC,"[4]; clinical isolate 1,461, 18 h",100.0 µM
same,MIC50,"[4]; clinical isolate 1,461, 24 h",>100 µM
same,"H50, concentration of peptide leading to 50% hemolysis","[5]; red cells of human, 2 h",>100 µM
same,"Gm, geometric mean of MIC50 values",[11],17.4 µM
same,"Gm, geometric mean of MIC50 values",[12],54.1
same,MBC,"[6]; ATCC 29212, 18 h",100.0 µM
same,MIC50,"[6]; ATCC 29212, 24 h",25.6 µM
same,MBC,"[7]; ATCC 10145, 18 h",>200.0 µM
same,MIC50,"[7]; ATCC 10145, 24 h",99.7 µM
same,MBC,"[8]; ATCC 51575, 18 h",>200.0 µM
same,MIC50,"[8]; ATCC 51575, 24 h",>200.0 µM
same,MBC,"[9]; ATCC 27853, 18 h",>200.0 µM
same,MIC50,"[9]; ATCC 27853, 24 h",107.2 µM
